Experimental data: US20150011751A1, “NOVEL TRIAZINE DERIVATIVE” (CARNA BIOSCIENCES, INC., priority 2012, published 2015)

biological target: Dephosphorylated BTK (Homo sapiens, UniProt Q06187); experiment: Test of activity inhibition against dephosphorylated BTK (mobility shift assay)
Sequence (Q06187 whole entry): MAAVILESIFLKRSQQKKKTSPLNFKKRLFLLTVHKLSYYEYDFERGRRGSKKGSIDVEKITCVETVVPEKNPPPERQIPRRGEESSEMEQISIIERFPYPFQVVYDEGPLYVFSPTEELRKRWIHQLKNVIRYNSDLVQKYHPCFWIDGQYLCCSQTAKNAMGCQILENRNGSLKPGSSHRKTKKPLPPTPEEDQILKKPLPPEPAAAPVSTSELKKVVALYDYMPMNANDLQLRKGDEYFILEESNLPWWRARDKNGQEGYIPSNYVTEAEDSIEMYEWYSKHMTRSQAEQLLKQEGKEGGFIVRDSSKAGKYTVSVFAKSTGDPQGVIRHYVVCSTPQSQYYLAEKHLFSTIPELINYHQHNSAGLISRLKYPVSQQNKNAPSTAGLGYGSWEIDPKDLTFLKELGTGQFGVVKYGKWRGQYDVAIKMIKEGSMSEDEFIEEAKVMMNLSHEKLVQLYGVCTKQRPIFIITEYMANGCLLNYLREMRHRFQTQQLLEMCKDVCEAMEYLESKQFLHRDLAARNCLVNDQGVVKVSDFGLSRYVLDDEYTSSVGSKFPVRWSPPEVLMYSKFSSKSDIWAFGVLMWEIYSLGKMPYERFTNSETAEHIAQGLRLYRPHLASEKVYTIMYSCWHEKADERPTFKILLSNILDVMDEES

Q: With Nc1nc(Nc2cnn(CC(=O)N3CCOCC3)c2)nc(-c2cccc(N3CCc4cc(C5CC5)cc(F)c4C3=O)c2CO)n1 [Example 253, 2-[3-(4-Amino-6-{[1-(2-morpholino-2-oxoeth-yl)-1H-pyrazol-4-yl]ami-no}-1,3,5-triazin-2-yl)-2-(hydroxymethyl)phenyl]-6-cyclopropyl-8-fluoro-3,4-dihydro-isoquinolin-1(2H)-one] as the compound, how does the IC50 read?
A: 0.8 nM

Q: For Nc1nc(Nc2cnn(CC(F)(F)F)c2)nc(-c2cccc(N3CCc4cc(C5CC5)cc(F)c4C3=O)c2CO)n1 [Example 240, 2-[3-(4-Amino-6-{[1-(2,2,2-trifluoroethyl)-1H-pyrazol-4-yl]amino}-1,3,5-triazin-2-yl)-2-(hydroxymethyl)phe-nyl]-6-cyclopropyl-8-fluoro-3,4-dihydroiso-quinolin-1(2H)-one], which IC50 is on record?
A: 1.1 nM

Q: How did the IC50 turn out when CC(C)(C)c1ccc(C(=O)Nc2cccc(-c3nc(N)nc(Nc4ccc(N5CCOC(CO)C5)cc4)n3)c2CO)cc1 (stereo not shown) [Example 106, N-{3-[4-Amino--({4-[2-(hydroxymethyl)morpho-lino]phenyl}amino)-1,3,5-triazin-2-yl]-2-(hydroxymethyl)phenyl}-4-(tert-butyl)benzamide] was run?
A: 0.7 nM

Q: For Nc1nc(Nc2ccc(O)cc2)nc(-c2cccc(NC(=O)c3cc4c(s3)CCCC4)c2CO)n1 [Example 136, N-(3-{4-Amino-6-[(4-hy-droxyphenyl)amino]-1,3,5-triazin-2-yl}-2-(hydroxymethyl)phenyl)-4,5,6,7-tetrahydro benzo[b]thiophene-2-carboxamide], which IC50 is on record?
A: 1.3 nM

Q: With Nc1nc(Nc2ccc(OC3CCOCC3)c(F)c2)nc(-c2cccc(N3CCc4cc(C5CC5)cc(F)c4C3=O)c2CO)n1 [Example 194, 2-{3-[4-Amino-6-({3-fluoro-4-[(tetrahydro-2H-pyran-4-yl)oxy]phe-nyl}amino)-1,3,5-tria-zin-2-yl]-2-(hydroxy-methyl)phenyl}-6-cyclo-propyl-8-fluoro-3,4-dihydroisoquinolin-1(2H)-one] as the compound, how does the IC50 read?
A: 0.9 nM

Q: Which IC50 does the source give for Nc1nc(Nc2cnn(CC(=O)N3CCCC3)c2)nc(-c2cccc(N3CCc4cc(C5CC5)cc(F)c4C3=O)c2CO)n1 [Example 260, 2-{3-[4-Amino-6-({1-[2-oxo-2-(pyrrolidin-1-yl)ethyl]-1H-pyrazol-4-yl}amino)-1,3,5-tri-azin-2-yl]-2-(hydroxy-methyl)phenyl}-6-cyclo-propyl-8-fluoro-3,4-dihydroisoquinolin-1 (2H)-one] here?
A: 0.9 nM

Q: For Nc1nc(Nc2ccc(N3CCOCC3)cc2)nc(-c2cccc(NC(=O)c3ccc(C4CC4)cc3F)c2CO)n1 [Example 145, N-(3-{4-Amino-6-[(4-morpholinophenyl)amino]-1,3,5-triazin-2-yl}-2-(hydroxymethyl)phe-nyl)-4-cyclopropyl-2-fluorobenzamide], which IC50 is on record?
A: 1.8 nM

Q: With Nc1nc(Nc2cnn([C@H]3CCOC3)c2)nc(-c2cccc(N3CCc4cc(C5CC5)cc(F)c4C3=O)c2CO)n1 [Example 235, (S)-2-[3-(4-Amino-6-{[1-(tetrahydrofuran-3-yl)-1H-pyrazol-4-yl]amino}-1,3,5-triazin-2-yl)-2-(hydroxymeth-yl)phenyl]-6-cyclopropyl-8-fluoro-3,4-dihydro-isoquinolin-1(2H)-one] as the compound, how does the IC50 read?
A: 0.8 nM

Q: Which IC50 does the source give for CCC(C)n1cc(Nc2nc(N)nc(-c3cccc(N4CCc5cc(C6CC6)cc(F)c5C4=O)c3CO)n2)cn1 (stereo not shown) [Example 271, 2-[3-(4-Amino-6-{[1-(sec-butyl)-1H-pyrazol-4-yl]amino}-1,3,5-tri-azin-2-yl)-2-(hydroxy-methyl)phenyl]-6-cyclo-propyl-8-fluoro-3,4-dihydroisoquinolin-1 (2H)-one] here?
A: 0.4 nM

Q: CC(C)(C)c1ccc(C(=O)Nc2cccc(-c3nc(N)nc(Nc4ccc5c(c4)ncn5CCCO)n3)c2CO)cc1 [Example 155, N-[3-(4-Amino-6-{[1-(3-hydroxypropyl)-1H-benzo[d]imidazol-5-yl]amino}-1,3,5-triazin-2-yl)-2-(hydroxymeth-yl)phenyl]-4-(tert-butyl)benzamide] was tested. Which IC50 did it give?
A: 0.8 nM
